Values quoted from earlier work in paper PMC6151660 (Molecules : A Journal of Synthetic Chemistry and Natural …, 2017).

System: M. tuberculosis, H37Rv
Details: cited from earlier work

## CO[C@@H]1[C@@H](OC(N)=O)[C@@H](O)[C@H](Oc2ccc3c(O)c(NC(=O)c4ccc(O)c(CC=C(C)C)c4)c(=O)oc3c2C)OC1(C)C [Novobiocin]
  MIC: approximately 6.5 µM
